The target in assay [1] is T1, human mAChR M1 (Homo sapiens, UniProt P11229).
T1 sequence (P11229 1-460): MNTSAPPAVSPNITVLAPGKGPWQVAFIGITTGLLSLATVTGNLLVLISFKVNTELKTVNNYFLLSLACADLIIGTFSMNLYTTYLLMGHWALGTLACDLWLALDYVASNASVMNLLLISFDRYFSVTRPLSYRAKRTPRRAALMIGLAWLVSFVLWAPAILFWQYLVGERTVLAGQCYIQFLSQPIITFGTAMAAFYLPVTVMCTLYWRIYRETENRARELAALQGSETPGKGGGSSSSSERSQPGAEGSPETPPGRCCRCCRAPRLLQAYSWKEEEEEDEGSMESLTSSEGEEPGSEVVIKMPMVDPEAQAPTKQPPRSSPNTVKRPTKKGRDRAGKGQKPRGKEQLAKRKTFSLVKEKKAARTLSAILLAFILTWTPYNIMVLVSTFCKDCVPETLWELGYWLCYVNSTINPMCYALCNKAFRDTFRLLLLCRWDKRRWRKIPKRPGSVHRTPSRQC
Put plainly: mAChR M1 cell-based functional assay (calcium mobilization), PAM mode: increase in the EC20 acetylcholine response. In outline:
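CHO-K1 cells stably expressing hM1, Fluo-4 loaded, read by FDSS calcium flux at 1 Hz. Compound (11-point 1:3 CRC) added at 4 s, EC20 acetylcholine at 144 s, EC80 at 230 s. PAM activity taken as concentration-dependent increase in EC20 ACh response, fitted by four-parameter logistic for EC50/Emax.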

Assay [2] deals with T1, human mAChR M1. In words: mAChR M1 cell-based functional assay (calcium mobilization), agonist mode: compound alone, Emax relative to acetylcholine maximum. The note with it: for EC50 / Agonist Activity Human M1 EC50: human mAChR M1; for Emax: relative to the maximum for acetylcholine. In outline: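 CHO-K1 cells stably expressing hM1 were loaded with Fluo-4 AM, and calcium flux was read as fluorescence ratio. Compound was added alone from an 11-point 1:3 curve, and the agonist response was fitted with a four-parameter logistic. Emax is expressed relative to the acetylcholine maximum.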

Experimental findings from patent US20240228489A1, “POSITIVE ALLOSTERIC MODULATORS OF THE MUSCARINIC ACETYLCHOLINE RECEPTOR M1” (Vanderbilt University, priority 2021, published 2024) are described below.

For `[2H]C1([2H])c2ncccc2C(=O)N1Cc1c(F)cc(-c2ccc(OCC)c3nn(C)cc23)cc1F` [Compound 96, 6-(4-(7-ethoxy-2-methyl-2H-indazol-4-yl)-2,6-difluorobenzyl)-6,7-dihydro-5H-pyrrolo[3,4-b]pyridin-5-one-7,7-d2], the EC50 in assay [1] came out at 211 nM; in assay [2], 7520 nM. In addition, the figures for the Emax in assay [1] and in assay [2] were 80% and 26%, respectively.
In the same order, the values of `[2H]C1([2H])c2ncccc2C(=O)N1Cc1c(F)cc(-c2ccc(OCC)c3nn(C([2H])([2H])[2H])cc23)cc1F` [Compound 97, 6-(4-(7-ethoxy-2-(methyl-d3)-2H-indazol-4-yl)-2,6-difluorobenzyl)-6,7-dihydro-5H-pyrrolo[3,4-b]pyridin-5-one-7,7-d2] are 164 nM, 5940 nM, 88% and 25%.
Take `[2H]C1([2H])c2ncccc2C(=O)N1Cc1c(F)cc(-c2ccc(OC(C)C)c3nn(C)cc23)cc1F` [Compound 98, 6-(2,6-difluoro-4-(7-isopropoxy-2-methyl-2H-indazol-4-yl)benzyl)-6,7-dihydro-5H-pyrrolo[3,4-b]pyridin-5-one-7,7-d2]: in assay [1], the concentration for a half-maximal effect (EC50) is 286 nM and the Emax stood at 76%. Also, in assay [2], the EC50 was found to be 8390 nM and the Emax was found to be 21%.
In the same order, the values of `[2H]C1([2H])c2ncccc2C(=O)N1Cc1c(F)cc(-c2ccc(OC(C)C)c3nn(C([2H])([2H])[2H])cc23)cc1F` [Compound 99, 6-(2,6-difluoro-4-(7-isopropoxy-2-(methyl-d3)-2H-indazol-4-yl)benzyl)-6,7-dihydro-5H-pyrrolo[3,4-b]pyridin-5-one-7,7-d2] are 285 nM, 83%, 5800 nM and 25%.
For `[2H]C1([2H])c2ncccc2C(=O)N1Cc1c(F)cc(-c2ccc3nn(C([2H])([2H])[2H])cc3c2)cc1F` [Compound 100, 6-(2,6-difluoro-4-(2-(methyl-d3)-2H-indazol-5-yl)benzyl)-6,7-dihydro-5H-pyrrolo[3,4-b]pyridin-5-one-7,7-d2], in assay [1], the EC50 was 214 nM and the Emax amounted to 85%. In assay [2], the “Agonist Activity Human M1 EC50” value is reported as “Inactive” and the Emax came to 6%.
In the same order, the values of `[2H]C1([2H])c2ncccc2C(=O)N1Cc1c(F)cc(-c2ccc3c(cnn3C([2H])([2H])[2H])c2)cc1F` [Compound 101, 6-(2,6-difluoro-4-(1-(methyl-d3)-1H-indazol-5-yl)benzyl)-6,7-dihydro-5H-pyrrolo[3,4-b]pyridin-5-one-7,7-d2] are 1410 nM, 75%, “Inactive” and 3%.
In the same order, the values of `[2H]C1([2H])c2ncccc2C(=O)N1Cc1c(F)cc(-c2ccc(OC(F)F)c3nn(C)cc23)cc1F` [Compound 102, 6-(4-(7-(difluoromethoxy)-2-methyl-2H-indazol-4-yl)-2,6-difluorobenzyl)-6,7-dihydro-5H-pyrrolo[3,4-b]pyridin-5-one-7,7-d2] are 469 nM, 77%, “Inactive” and 9%.
In the same order, the values of `[2H]C1([2H])c2ncccc2C(=O)N1Cc1c(F)cc(-c2ccc(OC(F)(F)F)c3nn(C)cc23)cc1F` [Compound 103, 6-(2,6-difluoro-4-(2-methyl-7-(trifluoromethoxy)-2H-indazol-4-yl)benzyl)-6,7-dihydro-5H-pyrrolo[3,4-b]pyridin-5-one-7,7-d2] are 1550 nM, 73%, “Inactive” and 2%.
